From US12564600B2, “System for enhancing therapeutic compliance of the anti-cancer compound E7766” (Eisai R&D Management Co., Ltd., priority 2019, dated 2026)
≈ marks a conversion by molar mass, not a printed value. Entries after “also recorded” stand apart in the source; their conditions may differ.

Legend:
[1] = biological target: T1, OATP1B3 (Homo sapiens, UniProt Q9NPD5); experiment: Uptake in HEK293 cells overexpressing OATP1B3; format: in vitro ADME
T1 construct: expressed in transfected cells; host or cells: HEK293-FT
T1 sequence (Q9NPD5 1-702): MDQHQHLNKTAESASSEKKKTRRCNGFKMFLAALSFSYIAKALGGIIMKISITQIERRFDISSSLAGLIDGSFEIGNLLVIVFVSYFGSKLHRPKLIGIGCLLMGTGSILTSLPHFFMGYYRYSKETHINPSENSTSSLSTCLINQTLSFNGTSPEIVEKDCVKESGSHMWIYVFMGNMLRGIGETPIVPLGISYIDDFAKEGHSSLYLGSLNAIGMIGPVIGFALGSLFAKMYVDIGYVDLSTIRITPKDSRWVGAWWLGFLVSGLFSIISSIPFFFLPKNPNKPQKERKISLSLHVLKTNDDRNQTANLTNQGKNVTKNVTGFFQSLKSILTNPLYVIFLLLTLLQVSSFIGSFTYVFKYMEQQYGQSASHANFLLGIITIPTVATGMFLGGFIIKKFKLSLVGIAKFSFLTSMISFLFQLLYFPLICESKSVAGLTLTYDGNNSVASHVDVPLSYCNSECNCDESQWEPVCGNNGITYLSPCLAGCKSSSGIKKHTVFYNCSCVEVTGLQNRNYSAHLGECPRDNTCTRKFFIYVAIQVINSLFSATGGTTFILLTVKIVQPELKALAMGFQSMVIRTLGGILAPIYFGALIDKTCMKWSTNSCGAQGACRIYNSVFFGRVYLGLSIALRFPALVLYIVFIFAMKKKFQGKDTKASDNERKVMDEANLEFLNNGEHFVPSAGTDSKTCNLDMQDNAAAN
Method: (§1) TransportoCells™ (Corning, N.Y., USA) expressing OATP2B1, NTCP, and HEK293-FT cells stably transfected with the vector containing OATP1B1 cDNA or OATP1B3 cDNA or empty vector were grown in a Dulbecoo's modified Eagle's medium fortified with 10% fetal calf serum and 2 mmol/L sodium butyrate (for NTCP only) in a humidified incubator at 37° C. and 5% CO2. Cells were harvested at 90% confluence and then seeded in poly-D-lysine-coated 24-well 24 h prior to transporter assay. Cells were washed twice and pre-incubated with 200 μL of pre-warmed Krebs-Henseleit buffer. After pre-incubation, cells were incubated with 3 or 10 μmol L-1 of Compound 1 in presence or absence of 100 μmol L-1 of inhibitors (Rifamycin SV for OATP2B1, Troglitazone for NTCP, Rifamycin for OATP1B1 and OATP1B3). The transport reaction was terminated by aspirating the buffer from the wells at designated time. After washing three times with 200 μL of ice-cold Krebs-Henseleit buffer, the cells were lysed and the resulting cellular lysates were analyzed by LC-MS/MS.
(§2) Concentration-dependent uptake of Compound 1 via OATP1B1 and OATP1B3 were conducted with a concentration range of 0.25-100 μmol L-1 under linear uptake. All experiments were run in triplicates.

[2] = Physicochemical properties and ECCS classification of Compound 1
[3] = Pharmacokinetics and excretion in bile duct-cannulated rat, single IV dose; format: in vivo, Sprague Dawley rats; conditions: IV 1 mg/kg, Mean SD
Method: Male bile duct-cannulated beagle dogs or Sprague Dawley rats (n=3) were given a single intravenous (IV) dose of Compound 1. Plasma, urine and bile samples were collected from the dogs, and blood, urine, bile and feces samples were collected from rats up to 48 hours post-dose. Blood samples were kept on wet ice after collection until centrifuged for separation of plasma. Urine samples were collected at intervals 0 to 4, 4 to 8, 8 to 24, and 24 to 48 hours post-dose into collection tubes on wet ice. Bile samples were collected at intervals 0 to 4, 4 to 8, 8 to 24, and 24 to 48 hours post-dose into collection tubes cooled via an ice pack. Feces samples for rats were collected over 0 to 24 hour interval. All samples were transferred into properly labeled tubes and stored at −70° C. until pending shipment to the bioanalytical facility. All samples were analyzed using LC-MS/MS and the pharmacokinetic parameters of Compound 1 were determined with Phoenix WinNonlin using non-compartmental analysis.
Data are shown as Mean SD. NC indicates Not Collected.

[4] = biological target: T2, OATP1B1 (Homo sapiens, UniProt Q9Y6L6); experiment: Uptake in HEK293 cells overexpressing OATP1B1; format: in vitro ADME
T2 construct: expressed in transfected cells; host or cells: HEK293-FT
T2 sequence (Q9Y6L6 1-691): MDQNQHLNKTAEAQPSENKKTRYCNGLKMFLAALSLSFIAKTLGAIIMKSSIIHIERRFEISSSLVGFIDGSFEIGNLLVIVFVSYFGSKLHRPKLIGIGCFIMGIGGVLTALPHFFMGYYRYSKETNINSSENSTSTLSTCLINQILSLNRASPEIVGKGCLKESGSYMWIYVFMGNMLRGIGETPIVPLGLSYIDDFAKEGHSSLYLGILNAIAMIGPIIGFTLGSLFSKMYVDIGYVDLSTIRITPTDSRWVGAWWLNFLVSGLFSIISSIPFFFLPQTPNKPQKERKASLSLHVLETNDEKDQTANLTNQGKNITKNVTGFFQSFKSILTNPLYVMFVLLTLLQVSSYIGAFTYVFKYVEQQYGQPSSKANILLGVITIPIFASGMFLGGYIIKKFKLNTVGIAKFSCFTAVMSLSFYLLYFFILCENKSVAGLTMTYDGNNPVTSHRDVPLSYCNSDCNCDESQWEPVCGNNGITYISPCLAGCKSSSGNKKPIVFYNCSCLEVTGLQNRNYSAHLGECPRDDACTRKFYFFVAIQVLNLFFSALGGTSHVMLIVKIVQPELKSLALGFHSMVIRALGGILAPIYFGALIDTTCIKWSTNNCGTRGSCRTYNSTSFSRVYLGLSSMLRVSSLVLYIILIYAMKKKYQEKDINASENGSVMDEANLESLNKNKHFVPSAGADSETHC
Method: as §1, §2

[5] = Permeability (Papp); format: in vitro ADME; conditions: not told
[6] = Simcyp input parameter, Table 3

Jmax (pmol/min/million cells), OATP1B3 [1, 6]: 24.39 pmol/min/million cells
Km ([1]; human, HEK293-FT cells stably transfected with OATP1B3 cDNA, Simcyp input parameter, Table 3): 4 µM
solubility [2]: 150 µM (≈ 112 µg/mL)
logD ([2]; read-out: measured Log D): 1.31
pKa ([2]; read-out: measured pKa): 3.41
Jmax (pmol/min/million cells), OATP1B1 [4, 6]: 8.34 pmol/min/million cells
Papp [5]: 0.36 ×10⁻⁶ cm/s
SMILES: O=[P@]1(S)OC[C@H]2O[C@@H]3[C@H](F)[C@@H]2O[P@](=O)(S)OC[C@H]2O[C@H]([C@H](F)[C@@H]2O1)n1cnc2c(ncnc21)NC/C=C/CNc1ncnc2c1ncn23 [Compound 1]
substrate of OATP1B3 ([1]; HEK293 cells overexpressing human OATP1B3): responsible for hepatic uptake; also recorded: substrate
contribution of OATP1B3 versus OATP1B1 in hepatobiliary clearance ([1]; phenotyping studies): predominant contribution of OATP1B3 over OATP1B1
% Ae, feces ([3]; 0 to 24 h): 0.4 ± 0.2%
% Ae, urine ([3]; up to 48 h, 1 mg/kg): 13.7 ± 2.8%
substrate of OATP1B1 ([4]; HEK293 cells overexpressing human OATP1B1): responsible for hepatic uptake; also recorded: substrate
